The target of data set [1] is T1, HIV-1 Nucleocapsid Protein (NCp7) (Human immunodeficiency virus type 1 group M subtype B, UniProt P12493).
T1 construct: The NCp7 protein containing 2 Zn-fingers and 2 Zn ions is incubated with drug
Kind of data set: Zinc extrusion assay (TSQ fluorescence) from the zinc fingers of HIV-1 nucleocapsid protein (NCp7). Type of data set: biochemical. The source says: The compounds of the present invention cause the extrusion of zinc from the nucleocapsid protein (NCp7) of HIV-1. The NC protein is highly conserved among all retroviruses (South T., Blake P., et al., Biochemistry, 1990;29:7786) and is essential for viral infectivity (Aldovini A. and Young R., J. Virology, 1990;64:1920 and Gorelick R., Nigida S., et al., J. Virology, 1990;64:3207). The zinc is normally held in NC proteins by 1 or 2 zinc fingers. In the case of HIV-1, 2 zinc fingers are present (Summers M., South T., et al., Biochemistry, 1990;29:329) and are involved specifically with the PSI site on viral RNA which controls the packaging of viral RNA. Interference of this packaging causes the formation of non-infectious virions (Dannull J., Surovoy A., et al., EMBO, 1994;13:1525). It has previously been shown that compounds that cause zinc extrusion have potent anti-HIV activity in multiple cell lines and against all retroviruses (Rice W., Schaeffer C., et al., Nature, 1993;361:473).
A fluorescence-based assay has been developed to monitor the ejection of zinc from purified HIV-1 NCp7. The fluorophore, N-(6-methoxy-8-quinolyl)-p-toluenesulfonamide (TSQ), has an increased fluorescent signal upon bonding zinc ion in solution. The NCp7 protein containing 2 Zn-fingers and 2 Zn ions is incubated with drug causing the extrusion of Zn ions. The released Zn is then sequestered by the TSQ and the increased fluorescence monitored relative to control. […] Fluorescence (excitation 355 nm emission 400 nm) was monitored versus time. Controls were the NCp7 under assay conditions without drug, and apo NCp7 (no Zn) with drug. The % Zn extrusion was calculated based on the actual fluorescence measured divided by the fluorescence of all theoretical Zn extruded (5.6 μM)×100.
Table 1 below presents data for several invention compounds evaluated in the zinc extrusion assay described above.

In data set [2] the test system is HIV-1. As to the kind of experiment: CEM cell assay, anti-HIV-1 activity. Type of data set: cell-based. As to conditions: Human immunodeficiency virus 1, CCRF-CEM, HIV-1, 6 or 7 days, read-out: EC50 (Effective Concentration which protects cells from viral cytopathic effects). The source says:
The test systems utilized to establish the antiviral activity of the arylthio compounds of this invention are well recognized in the art and are routinely employed for such purpose. For example, the assay utilized to evaluate the compounds activity against the HIV virus is that employed by the U.S. National Cancer Institute as described by Weislow O. S., et al., J. Natl. Cancer Inst., 1989;81:577-586, incorporated herein by reference.
The procedure is designed to detect agents acting at any stage of the virus reproductive cycle. The assay basically involves the killing of T4 lymphocytes by HIV. Small amounts of HIV are added to cells, and at least two complete cycles of virus reproduction are necessary to obtain the required cell killing. Agents which interact with virions, cells, or virus gene-products to interfere with viral activities will protect cells from cytolysis. The system is automated in several features to accommodate large numbers of candidate agents, and is generally designed to detect anti-HIV activity. However, compounds which degenerate or are rapidly metabolized in the culture conditions may not show activity in this screen.
(§1) Yet another test system employed to determine antiviral activity is called the CEM cell assay.
(§2) T4 lymphocytes (CEM cell line) are exposed to HIV at a virus to cell ratio approximately 0.05, and plated along with noninfected control cells in 96-well microliter plates.
(§3) The candidate agent is dissolved in dimethyl sulfoxide (unless otherwise noted), then diluted 1:200 in cell culture medium. Further dilutions (half-log10) are prepared before adding to an equal volume of medium containing either infected or noninfected cells. Cultures are incubated at 37° in a 5% carbon dioxide atmosphere for 6 or 7 days. The tetrazolium salt, XTT, is added to all wells, and cultures are incubated to allow formazan color development by viable cells (J. National Cancer Institute, 1989;81:577-586). Individual wells are analyzed spectrophotometrically to quantitate formazan production, and in addition are viewed microscopically for detection of viable cells confirmation of protective activity.
(§4) Drug-tested virus-infected cells are compared with drug-treated noninfected cells and with other appropriate controls (untreated infected and untreated noninfected cells, drug-contain wells without cells, etc.) on the same plate. Data are reviewed in comparison with other tests done at the same time and a determination about activity is made.

Data set [3] is described as follows: CEM cell growth inhibition (XTT, noninfected cells). As to conditions: human, CEM Cell Assay, drug alone, read-out: IC50 (Inhibitory Concentration where drug alone inhibits cell growth). Type of data set: cell-based. The procedure: as §1, §2, §3, §4
A general note: Tetrazolium assays rely on reduction of a dye to a coloured formazan, in cell work by metabolically active cells.

The mark [4] stands for this setting: 10 μM compound, 2.8 μM NCp7, pH 7.4, 26° C., 90 minutes.

Some results are limits rather than exact numbers.

Consider `O=C(O)CN(CCN(CC(=O)O)CC(=O)O)CC(=O)O` [EDTA, reference compound], for which the “% Zinc Extrusion Relative to Control” value in data set [1] (EDTA, 24 hours) is listed as 10%.
For `CC(C)NS(=O)(=O)c1ccc(NC(=O)c2ccccc2SSc2ccccc2C(=O)Nc2ccc(S(=O)(=O)NC(C)C)cc2)cc1` [Example 3, 2,2'-Dithiobis-N-[4[[(1-methylethyl)amino]sulfonyl]phenyl]benzamide], the “% Zinc Extrusion Relative to Control” value in data set [1] (setting [4]) is listed as 73%.
As for `NS(=O)(=O)c1ccc(NC(=O)c2ccc(F)cc2SSc2cc(F)ccc2C(=O)Nc2ccc(S(N)(=O)=O)cc2)cc1` [Example 16, 2,2'-Dithiobis[N-[4-(aminosulfonyl)phenyl]-4-fluorobenzamide]], the EC50 in data set [2] was found to be 2.5 µM. Moreover, the CC50 in data set [3] is 66 µM.
Take `COc1cccc(C(=O)Nc2ccc(S(N)(=O)=O)cc2)c1SSc1c(OC)cccc1C(=O)Nc1ccc(S(N)(=O)=O)cc1` [Example 18, 2,2'-Dithiobis[N-[4-(aminosulfonyl)phenyl]-3-methoxybenzamide]]: in data set [1] (setting [4]), the “% Zinc Extrusion Relative to Control” value is 67%.
For `COc1ccc(C(=O)Nc2ccc(S(N)(=O)=O)cc2)c(SSc2cc(OC)ccc2C(=O)Nc2ccc(S(N)(=O)=O)cc2)c1` [Example 19, 2,2'-Dithiobis[N-[4-(aminosulfonyl)phenyl]-4-methoxybenzamide]], in data set [2], the EC50 turned out to be 2.4 µM. Further, the CC50 in data set [3] is over 100 µM.
On the same counts, the results for `Cc1ccc(SSc2ccc(C)cc2C(=O)Nc2ccc(S(N)(=O)=O)cc2)c(C(=O)Nc2ccc(S(N)(=O)=O)cc2)c1` [Example 23, 2,2'-Dithiobis[N-[4-(aminosulfonyl)phenyl]-5-methylbenzamide]] are 4.3 µM and over 100 µM.
For `NS(=O)(=O)c1ccc(NC(=O)c2cccnc2SSc2ncccc2C(=O)Nc2ccc(S(N)(=O)=O)cc2)cc1` [Example 25, 2,2'-Dithiobis[N-[4-(aminosulfonyl)phenyl]-3-pyridinecarboxamide]], the “% Zinc Extrusion Relative to Control” value in data set [1] (setting [4]) is reported as 73%.
As for `CC(C)(C)[C@H](NC(=O)c1ccccc1SSc1ccccc1C(=O)N[C@H](C(=O)O)C(C)(C)C)C(=O)O` [Example 48, L,L-2-{2-[2-(1-Carboxy-2,2-dimethyl-propylcarbamoyl)-phenyldisulfanyl]-benzoylamino}-3,3-dimethyl-butyric acid], the EC50 in data set [2] came out at 18 µM. In addition, the CC50 in data set [3] was over 100 µM.
For `CC(C)C[C@H](NC(=O)c1ccc(F)cc1SSc1cc(F)ccc1C(=O)N[C@@H](CC(C)C)C(=O)O)C(=O)O` [Example 51, [S-(R*,R*)]2-{2-[2-(1-Carboxy-3-methyl-butylcarbamoyl)-5-fluoro-phenyldisulfanyl]-4-fluorobenzoylamino}-4-methyl-pentanoic acid] the same measures were 8.4 µM and 64 µM.
On the same counts, the results for `COc1ccc(C(=O)N[C@@H](CC(C)C)C(=O)O)c(SSc2cc(OC)ccc2C(=O)N[C@@H](CC(C)C)C(=O)O)c1` [Example 54, [S-(R*,R*)]2-{2-[2-(1-Carboxy-3-methyl-butyl]carbamoyl)-5-methoxy-phenyldisulfanyl]-4-methoxybenzoylamino}-4-methyl-pentanoic acid] are 6.9 µM and 75 µM.
For `Cc1cccc(C(=O)N[C@@H](CC(C)C)C(=O)O)c1SSc1c(C)cccc1C(=O)N[C@@H](CC(C)C)C(=O)O` [Example 56, [S-(R*,R*)]2-{2-[2-(1-Carboxy-3-methyl-butylcarbamoyl)-6-methyl-phenyldisulfanyl]-3-methyl-benzoylamino}-4-methyl-pentanoic acid], the “% Zinc Extrusion Relative to Control” value in data set [1] (setting [4]) came out at 73%.
`Cc1ccc(C(=O)N[C@@H](CC(C)C)C(=O)O)c(SSc2cc(C)ccc2C(=O)N[C@@H](CC(C)C)C(=O)O)c1` [Example 57, [S-(R*,R*)]2-{2-[2-(1-Carboxy-3-methyl-butylcarbamoyl)-5-methyl-phenyldisulfanyl]-4-methylbenzoylamino}-4-methyl-pentanoic acid]: the EC50 in data set [2] was found to be 6 µM. Besides, in data set [3], the CC50 was determined as 71 µM.
Turning to `CC(=O)Nc1ccc(SSc2ccc(NC(C)=O)cc2C(=O)N[C@@H](CC(C)C)C(=O)O)c(C(=O)N[C@@H](CC(C)C)C(=O)O)c1` [Example 60, [S-(R*,R*)]2-{5-Acetylamino-2-[4-acetylamino-2-(1-carboxy-3-methyl-butylcarbamoyl)-phenyldisulfanyl]-benzoylamino}-4-methyl-pentanoic acid], in data set [1] (setting [4]), the “% Zinc Extrusion Relative to Control” value is recorded as 65%.
Consider `O=C(O)C[C@H](NC(=O)c1ccccc1SSc1ccccc1C(=O)N[C@@H](CC(=O)O)C(=O)O)C(=O)O` [Example 62, L,L-2-{2-[2-(1,2-Dicarboxy-ethylcarbamoyl)-phenyldisulfanyl]-benzoylamino}-succinic acid], for which the “% Zinc Extrusion Relative to Control” value in data set [1] (setting [4]) is reported as 73%.
With `COc1ccc(SSc2ccc(OC)cc2C(N)=O)c(C(N)=O)c1` [Example 70, 2,2'-Dithiobis[5-methoxy-benzamide]], in data set [1] (setting [4]), the “% Zinc Extrusion Relative to Control” value stood at 74%.
As for `CC(C)(C)C(=O)Nc1ccc(SSc2ccc(NC(=O)C(C)(C)C)cc2C(N)=O)c(C(N)=O)c1` [Example 73, 2,2'-Dithiobis[5-[(2,2-dimethyl-1-oxopropyl)amino]benzamide]], the EC50 in data set [2] came to 5 µM. In addition, the CC50 in data set [3] is 70 µM.
For `O=C(Nc1ccc(Cl)cc1Cl)c1ccccc1SSc1ccccc1C(=O)Nc1ccc(Cl)cc1Cl` [Example 84, 2,2'-Dithiobis[N-(2,4-dichlorophenyl)benzamide]], in data set [1] (setting [4]), the “% Zinc Extrusion Relative to Control” value came out at 50%.
Same read-out and setting: then `CS(=O)(=O)c1ccc(NC(=O)c2ccccc2SSc2ccccc2C(=O)Nc2ccc(S(C)(=O)=O)cc2)cc1` [Example 94, 2,2'-Dithiobis[N-[4-(methylsulfonyl)phenyl]benzamide]], with 62%.
Take `NS(=O)(=O)c1ccccc1NC(=O)c1ccccc1SSc1ccccc1C(=O)Nc1ccccc1S(N)(=O)=O` [Example 102, 2,2'-Dithiobis[N-[2-(aminosulfonyl)phenyl]benzamide]]: the EC50 in data set [2] came out at 1.7 µM. In addition, the CC50 in data set [3] was found to be 68 µM.
On the same counts, the results for `O=C(O)c1ccc(NC(=O)c2ccccc2SSc2ccccc2C(=O)Nc2ccc(C(=O)O)cc2)cc1` [Example 106, 4,4'-[dithiobis(2,1-phenylenecarbonylimino)bisbenzoic acid]] are 1.8 µM and 22 µM.
For `O=C(c1ccccc1SSc1ccccc1C(=O)N1CCSCC1)N1CCSCC1` [Example 113, {2-[2-(Thiomorpholine-4-carbonyl)-phenyldisulfanyl]phenyl}-thiomorpholin-4-yl-methanone], in data set [1] (setting [4]), the “% Zinc Extrusion Relative to Control” value came to 67%.
Take `NS(=O)(=O)c1ccc(NS(=O)(=O)c2ccccc2SSc2ccccc2S(=O)(=O)Nc2ccc(S(N)(=O)=O)cc2)cc1` [Example 145]: in data set [1] (setting [4]), the “% Zinc Extrusion Relative to Control” value is listed as 65%.
Still for that read-out and setting: then `O=C(c1ccccc1)c1ccccc1SSc1ccccc1C(=NO)c1ccccc1` [Example 150, {2-[2-(hydroxyimino-phenyl-methyl)-phenyldisulfanyl]phenyl}-phenyl-methanon], with 36%.

The record behind these values is patent US5734081A, “Arylthio compounds” (Warner-Lambert Company, priority 1995, dated 1998).
